Laboratory results as given in publication PMC6013238, “Development of novel NEMO-binding domain mimetics for inhibiting IKK/NF-κB activation” (PLoS Biology, 2018).

Test system: p-IκBα and COX-2
Experiment: LPS-induced acute inflammation, western blot of p-IκBα and COX-2 in lung and liver
Assay type: in vivo, mouse
Settings: acute treatment, LPS 10 mg/kg
Method: Fig 6 Newly identified NBD mimetics suppress LPS-induced acute inflammation in vivo. (A) The bioavailability property of SR12460, SR12343, SR12454, and SR11481. Concentrations of NBD mimetics were determined in plasma, brain, muscle, spleen, and liver 2 h post a single i.p. injection of 10 mg/kg of drugs; n = 3 per group. (B) Shown is the model to induce LPS-mediated acute inflammation and the treatment regimen with NBD mimetics. Mouse image via http://www.clker.com/clipart-mice-blank.html (copyright-free). (C) NBD mimetics suppressed LPS-induced acute inflammation in liver and lung by down-regulating NF-κB target gene expression. Vehicle, SR12343, SR12460, and 8K-NBD peptide were dosed at 10 mg/kg 30 min prior to the LPS treatment. Acute inflammation was induced by i.p. injection of 10 mg/kg LPS. Lung and liver were collected 2–4 h post injection, and mRNA was extracted for qRT-PCR analysis. (D, E) Western blot analysis was performed to probe for the expression of p-IκBα and COX-2 at protein level in liver and lung tissues. (F) Serum levels of IL-6 were determine by ELISA. n = 3–8 each group. *P < 0.05, **P < 0.01. […] COX-2, cyclooxygenase 2; IL-6, interleukin 6; i.p., intraperitoneal; LPS, lipopolysaccharide; NBD, NEMO-binding domain; n.d., nondetectable; NEMO, NF-κB essential modulator; NF-κB, nuclear factor κB; qRT-PCR, quantitative real-time polymerase chain reaction. […]

O=C(CNc1ccc(Cl)cn1)NCCc1cccc(Br)c1 [SR12343]
Phosphorylation of IκBα and levels of COX-2 in lung and liver (western blot): reduced
